# Reference: PMC8346996, “Antiradical Properties of N-Oxide Surfactants—Two in One” (International Journal of Molecular Sciences, 2021)
# Read-outs that look alike come from different tables or passages of the source. Marks after values point to notes of the source that are not given here.
# How the values were obtained:
# [1] = MTT cell viability assay, HaCaT; type: cell-based, human; conditions: human, HaCaT cells (immortalized human keratinocytes), evaluated for CMC
# Experimental: (§1) HaCaT (immortalized human keratinocytes from histologically normal skin) cell line was obtained from the CLS Cell Lines Service GmbH (Eppelheim, Germany). HGFs (human gingival fibroblasts) derive from primary cell culture. The cells were isolated according to the procedure described by Saczko et al. and patented by Saczko et al.. Cells were grown in plastic cell culture flasks in Dulbecco’s Modified Eagle’s Medium, supplemented with fetal bovine serum (FBS, Lonza, Morrisville, NC, USA), with 100 IU/mL penicillin, 50 mg streptomycin, and 125 μg amphotericin B (Sigma). The cells were maintained in a humidified atmosphere at 37 °C and 5% CO2. The cells were regularly maintained by systematic passaging. For experimental purposes, the cells were removed by trypsinization (0.25% Trypsin-EDTA, Sigma).
# (§2) MTT (Sigma) test was used to determine the viability of HaCaT and HGFs cells. The MTT assay was used to test mitochondrial metabolic functioning. Cells were seeded on flat bottom 96-well tissue culture plates at a density of 10^4 cells/well and allowed to grow in a CO2 incubator at 37 °C overnight. In the case of these studies, the culture medium was removed, surfactant solutions were added, and the cells were exposed for 24 and 48 h to compounds at doses ranging from 50 to 2000 μg/mL. After incubation, MTT assay was applied according to the manufacturer protocol. The absorbance was measured at 570 nm using a multiwell plate reader (EnSpire Multimode Reader, Perkin Elmer). Each experiment was performed in a few independent repetitions. Mean values and standard deviations of all results were calculated. The final results were expressed as the percentage of mitochondrial function relative to untreated control cells.
# [2] = test system: normal human keratinocytes (HaCaT); assay: MTT cell viability assay, HaCaT; type: cell-based; conditions: Homo sapiens, HaCaT, MTT
# Experimental: as §1, §2
# [3] = set-up: method as in PMID 23098238; conditions: cited from earlier work
# [4] = set-up: method as in PMID 23098238; conditions: cited from earlier work; remark: listed apart in the source
# [5] = DPPH• scavenging kinetics by UV-vis, pseudo-first-order conditions; conditions: for second-order rate constant k2 for the reaction with DPPH•: ethanol, 298 K, deaerated, DPPH• 2.2 × 10^−4 M, surfactant 0.012-0.12 M; for k2 higher in comparison with the CnPDA homolog: reaction with DPPH•
# Experimental: After confirming that the absorption maximum at 517 nm of DPPH• is outside the surfactant’s absorption range, the rate of the DPPH•-scavenging reaction of the N-oxides was measured by monitoring the decrease in absorbance of this maximum. To ensure that the decay of DPPH• obeyed pseudo-first-order kinetics, the concentration of surfactants was at least a 54-fold excess of the DPPH• concentration. As explained in SI, the calculated pseudo-first-order rate constants, kobs, increased linearly with the concentration of Cn(DAPANO)2 and CnPDA (shown in SI). The second-order rate constants k2 for the reaction between the N-oxides and DPPH• were determined from the slopes of the linear plots of kobs vs. the concentration of the surfactants and are given in Figure 6.
# The measurements were done under deaerated conditions at 298 K in ethanol solutions (2 mL in a 10 mm quartz cuvette) containing DPPH^• (C = 2.2 × 10^−4 M) and a surfactant at each of five different concentrations, namely C1 = 0.12 M, C2 = 0.09 M, C3 = 0.06 M, C4 = 0.03 M, and C5 = 0.012 M. UV−vis spectral changes associated with the undergoing reaction were monitored at 516 nm, using a Varian Cary 50Conc UV−visible Spectrophotometer. The following equations of the calibration curve were used to calculate DPPH^• concentrations in the reaction system: Abs = 4.0189 × C[mM] + 0.00813 (R^2 = 0.9998). The rate of DPPH^• scavenging reaction was determined using pseudo-first-order kinetics (the concentration of CnPDA or Cn(DAPANO)2 was maintained at more than 54-fold excess of the radical concentration); further details are given as Supporting Information.
# [6] = MTT cell viability assay, HGFs; type: cell-based, human; conditions: human, primary human gingival fibroblasts (HGFs), evaluated for CMC; for viability at 24 h: read-out: Viability 24 h HGF’s; for viability at 48 h: read-out: Viability 48 h HGF’s
# Experimental: as §1, §2
# [7] = test system: primary fibroblasts (HGFs); assay: MTT cell viability assay, HGFs; type: cell-based, human; conditions: Homo sapiens, Fibroblast, MTT
# Experimental: as §1, §2
# [8] = Hydrodynamic radius of micelles by dynamic light scattering (DLS); type: physicochemical; conditions: 298 K, surfactant at 100 x CMC
# Experimental: The hydrodynamic diameter for CnPDA was determined by the DLS method. The measurements were performed using a Nano Series Zetasizer from Malvern Instruments (UK) with a detection angle of 173°, equipped with a He−Ne laser (632.8 nm) and an ALV 5000 multibit multitau autocorrelator. Before the measurements, the samples were filtered through a filter (with a pore size of 0.2 μm) directly into the optical cell to remove any impurities. All of the DLS measurements were performed at 298 ± 0.1 K and at a surfactant concentration a hundred times higher than the critical micelle concentration (CMC). Each value was obtained as the average of three runs with at least 10 measurements. The DTS software (Nano) was used to evaluate the data.
# human keratinocytes = assay: ROS evaluation (DCF assay), human keratinocytes; type: cell-based; conditions: after ROS induction by DHTTP; surfactant in CMC concentration
# Experimental: (§3) Antioxidative properties of the tested surfactant were evaluated. To induce ROS production, a DPPH solution was prepared (C = 2.55 × 10^−3 mol/dm3). Normal fibroblasts and keratinocytes were seeded on flat bottom 96-well tissue culture plates at a density of 10^4 cells/well and allowed to grow in a CO2 incubator at 37°C overnight. Then, culture medium was removed and 200 µL of DPPH solution in DMEM was added to the plate and left for 1 h in a CO2 incubator at 37 °C. After incubation, DPPH solution was removed and ROS production was determined using DCF assay (Life Technologies, Warsaw, Poland). The DCF assay was conducted with 6-carboxy-2′,7′-dichlorodihydrofluorescein diacetate 2′,7′-dichlorofluorescein (carboxy-H2DCFDA). After deacetylation of H2DCFDA to H2DCF or carboxy-H2DCFDA to carboxy-H2DCF, cellular ROS oxidize H2DCF and carboxy-H2DCF to 2′,7′-dichlorofluorescein (DCF) and 2′,7′-carboxydichlorofluorescein (carboxy-DCF), respectively. The carboxy-H2DCFDA was dissolved in sterile DMSO to generate a stock solution of 50 µg/mL. For experiments, the stock solution of carboxy-H2DCFDA was brought to room temperature in the dark and then diluted in a cell culture medium without FBS. After washout of the incubation medium from cells with PBS, the reagent was added to cell culture to a final concentration of 10 µM and for 30 min was incubated at 37 °C in darkness. After incubation, excitation wavelength of 495 nm and emission wavelength of 530 nm were used by a multiwell scanning spectrophotometer (EnSpire Perkin Elmer, Krakow, Poland). In the next stage, surfactant solutions in CMC concentrations were added into cells after 1 h incubation with DHTTP solution. Cells were incubated, and ROS were detected 30 min by a multiwell scanning spectrophotometer (EnSpire Perkin Elmer, Poland).
# primary fibroblasts = assay: ROS evaluation (DCF assay), primary fibroblasts; type: cell-based, human; conditions: after ROS induction by DHTTP; surfactant in CMC concentration
# Experimental: as §3
# [9] = Radical scavenging monitored by EPR spectroscopy, DPPH•; conditions: after 60 min of reaction; C/CMC = 100
# Experimental: (§4) We began with an attempt to determine if the N-oxide surfactants can participate in the radical scavenging process when micelles are well-formed. Thus, the reaction mixtures containing a surfactant at C/CMC = 100, which is a typical concentration found in formulations, and GO• or DPPH• at 2 mM were prepared along with the control samples and monitored over time (solutions of DPPH• and GO• without surfactants).
# (§5) The scavenging capacity of the surfactants was judged quantitatively by measuring the percentage of remaining GO• and DPPH• after a fixed reaction time. The relative concentration of GO• and DPPH• was calculated from Equation (1):(1) remaining radical%=It/I0×100% where I0 and It correspond to the EPR signal integral intensity of a radical in the absence and presence of the N-oxide surfactants after a fixed time, respectively.
# (§6) The antiradical properties were studied by EPR using a Bruker ELEXYS E500 spectrometer equipped with an NMR gaussmeter and frequency counter. A microwave power of 10 mW, a modulation frequency of 100 kHz, a modulation amplitude of 1 G, a time constant of 82 ms, and a conversion time of 164 ms were adopted. The antiradical properties were evaluated against two model radicals: 2,2-diphenyl-1-picrylhydrazyl (DPPH•) and galvinoxyl (GO•). […]
# [10] = Radical scavenging monitored by EPR spectroscopy, GO•; conditions: after 60 min of reaction; C/CMC = 100
# Experimental: as §4, §5, §6
# [11] = 24 h incubation, read-out: IC50 HaCaT 24 h
# [12] = 48 h incubation, read-out: IC50 HaCaT 48 h
# [13] = 24 h incubation, read-out: IC50 HGFs 24 h
# [14] = 48 h incubation, read-out: IC50 HGFs 48 h
RH DLS [8] [nm],Structure (SMILES),viability at 24 h [1] [%],viability at 48 h [1] [%],"IC50 [2, 11] [µg/mL]","IC50 [2, 12] [µg/mL]",CMC [3],RH DLS [4],second-order rate constant k2 for the reaction with DPPH• [5] [M⁻¹ s⁻¹],k2 higher in comparison with the CnPDA homolog [5] [%],viability at 24 h [6] [%],viability at 48 h [6] [%],"IC50 [7, 13] [µg/mL]","IC50 [7, 14] [µg/mL]","radical (ROS) level, DCF fluorescence (human keratinocytes)","radical (ROS) level, DCF fluorescence (primary fibroblasts)",reduced the number of DPPH• by [9] [%],reduced the number of GO• by [10] [%]
–,CCCCCCCCCC(=O)N(CCC[N+](C)(C)[O-])CCC[N+](C)(C)[O-] [C10(DAPANO)2],8.1,18.2,98,97,3.0·10^−2 a M,1.75 ^a nm,0.000947,11,16.2,9.7,34.5,1.9,–,–,–,–
1.67,CCCCCCCCCC(=O)NCCC[N+](C)(C)[O-] [C10PDA],34.7,84.8,43.8,41.5,–,–,0.000853,–,98.6,20.2,77.9,38.7,–,–,–,–
2.27,CCCCCCCCCCCCCCCC(=O)NCCC[N+](C)(C)[O-] [C16PDA],140,123,48.1,9.8,–,–,0.00125,–,96.9,81.7,44.1,1.9,–,–,–,–
–,CCCCCCCCCCCCCCCC(=O)N(CCC[N+](C)(C)[O-])CCC[N+](C)(C)[O-] [C16(DAPANO)2],14.7,3.9,29,18.2,1.5·10^−4 a M,2.38 ^a nm,0.00138,10,27.8,12.3,14.3,0.76,not significant decrease in radical level,not significant decrease in radical level,–,–
–,CCCCCCCCCCCCCC(=O)N(CCC[N+](C)(C)[O-])CCC[N+](C)(C)[O-] [C14(DAPANO)2],11.3,4.5,32,17,8.0·10^−4 a M,2.28 ^a nm,0.00117,16,17.7,11.5,68.5,0.89,not significant decrease in radical level,not significant decrease in radical level,–,–
2.19,CCCCCCCCCCCCCC(=O)NCCC[N+](C)(C)[O-] [C14PDA],81.1,119,48.1,9.9,–,–,0.00101,–,104,78.2,69.9,1.6,most significant decrease of fluorescence level,most significant decrease of fluorescence level,–,–
1.96,CCCCCCCCCCCC(=O)NCCC[N+](C)(C)[O-] [C12PDA],89.4,116,31,18.8,–,–,0.000905,–,55.5,44.8,51.9,49.8,–,–,24,59
